From ChEMBL document CHEMBL5543073, “Synthesis, biological activity evaluation and mechanism analysis of new ganglioside GM3 derivatives as potential agents for nervous functional recovery” (Eur J Med Chem, 2024)
Activity calls are given as the source filed them. No cut-off for these calls is given here.

Assays:
N2a [1] = experiment: Cytotoxicity against mouse Neuro2a cells assessed as inhibition of cell viability incubated for 48 hrs by CCK8 assay; format: functional, cell-based
SH-SY5Y [2] = experiment: Cytotoxicity against human SH-SY5Y cells assessed as inhibition of cell viability incubated for 48 hrs by CCK8 assay; format: functional, cell-based
U-87 MG = experiment: Cytotoxicity against human U-87 MG cells assessed as inhibition of cell viability incubated for 48 hrs by CCK8 assay; format: functional, cell-based, U-87MG ATCC
PC-12 = experiment: Cytotoxicity against rat PC12 cells assessed as inhibition of cell viability incubated for 48 hrs by CCK8 assay; format: functional, cell-based; conditions: PC-12, 48 h
Neuron [3] = experiment: Induction of neurite growth in mouse primary neurons at 50 uM incubated for 48 hrs in presence of NGF by imaging analysis; format: functional, cell-based
N2a [4] = experiment: Downregulation of Wnt7b level in mouse Neuro2a cells at 50 uM incubated for 48 hrs by Western blot analysis; format: functional, cell-based
N2a [5] = experiment: Induction of cell proliferation in mouse Neuro2a cells at 50 uM incubated for 48 hrs by CCK8 assay; format: functional, cell-based
Neuron [6] = experiment: Induction of neurite growth in mouse primary neurons assessed as increase in neurite length at 50 uM incubated for 48 hrs by imaging analysis; format: functional, cell-based
A-431 [7] = experiment: Effect on Wnt7b gene expression in human A-431 cells by RNA-Seq analysis; format: functional, cell-based
N2a [8] = experiment: Effect on […] level in mouse Neuro2a cells at 50 uM incubated for 48 hrs by Western blot analysis; format: functional, cell-based
A-431 [9] = experiment: Effect on Rac2 gene expression in human A-431 cells by RNA-Seq analysis; format: functional, cell-based
[10] = Half life in C57BL/6 mouse at 10 mg/kg, iv measured for 24 hrs; format: ADME, organism-based; conditions: in vivo
SH-SY5Y [11] = experiment: Neuroprotective effect against MPP+-induced cytotoxicity in human SH-SY5Y cells assessed as increase in cell viability at 50 uM incubated for 24 hrs followed by MPP+ addition measured after 4 hrs by CCK8 assay relative to control; format: functional; conditions: time 28 hrs
[12] = Clearance in C57BL/6 mouse at 10 mg/kg, iv measured for 24 hrs; format: ADME, organism-based; conditions: in vivo
Neuron [13] = experiment: Induction of neurite growth in mouse primary neurons assessed as increase in MAP2 level incubated for 48 hrs in presence of NGF by Western blot analysis; format: functional, cell-based

half-life [10] [h] | CL [12] [µL/min/mg] | SMILES | IC50 (N2a [1]) [µM] | IC50 (SH-SY5Y [2]) [µM] | IC50 (U-87 MG) [µM] | IC50 (PC-12) [µM] | Activity (Neuron [3]) | Activity (N2a [4]) | Activity (N2a [5]) | Activity (Neuron [6]) | Activity (A-431 [7]) | Activity (N2a [8]) | Activity (A-431 [9]) | Activity (SH-SY5Y [11]) [%] | Activity (Neuron [13])
 |  | CCCCCCCCCCCCC/C=C/[C@@H](O)[C@H](CO[C@@H]1O[C@H](CO)[C@@H](O[C@@H]2O[C@H](CO)[C@H](O)[C@H](O[C@]3(C(=O)O)C[C@H](O)[C@@H](NC(=O)Cc4ccc(Br)cc4)C([C@@H](O)[C@H](O)CO)O3)[C@H]2O)[C@H](O)[C@H]1O)NC(=O)CCCCCCCCCCCCCCCCC (some centres not stated) | > 200 | > 200 | > 200 | > 200 |  |  |  |  |  |  |  |  | 
 |  | CCCCCCCCCCCCC/C=C/[C@@H](O)[C@H](CO[C@@H]1O[C@H](CO)[C@@H](O[C@@H]2O[C@H](CO)[C@H](O)[C@H](O[C@]3(C(=O)O)C[C@H](O)[C@@H](NC(=O)c4cc(C)cc(C)c4)C([C@@H](O)[C@H](O)CO)O3)[C@H]2O)[C@H](O)[C@H]1O)NC(=O)CCCCCCCCCCCCCCCCC (some centres not stated) | > 200 | > 200 | > 200 | > 200 |  |  |  |  |  |  |  |  | 
 |  | CCCCCCCCCCCCC/C=C/[C@@H](O)[C@H](CO[C@@H]1O[C@H](CO)[C@@H](O[C@@H]2O[C@H](CO)[C@H](O)[C@H](O[C@]3(C(=O)O)C[C@H](O)[C@@H](NC(=O)c4ccncc4)C([C@@H](O)[C@H](O)CO)O3)[C@H]2O)[C@H](O)[C@H]1O)NC(=O)CCCCCCCCCCCCCCCCC (some centres not stated) | > 200 | > 200 | > 200 | > 200 |  |  |  |  |  |  |  |  | 
49.3 | 0.467 | CCCCCCCCCCCCC/C=C/[C@@H](O)[C@H](CO[C@@H]1O[C@H](CO)[C@@H](O[C@@H]2O[C@H](CO)[C@H](O)[C@H](O[C@]3(C(=O)O)C[C@H](O)[C@@H](NC(=O)Cc4cccc([N+](=O)[O-])c4)C([C@@H](O)[C@H](O)CO)O3)[C@H]2O)[C@H](O)[C@H]1O)NC(=O)CCCCCCCCCCCCCCCCC (some centres not stated) | > 200 | > 200 | > 200 | > 200 | Active | Active | Active | Active | Active | inactive | Active | 18.8 | Active
 |  | CCCCCCCCCCCCC/C=C/[C@@H](O)[C@H](CO[C@@H]1O[C@H](CO)[C@@H](O[C@@H]2O[C@H](CO)[C@H](O)[C@H](O[C@]3(C(=O)O)C[C@H](O)[C@@H](NC(=O)c4cccc([N+](=O)[O-])c4)C([C@@H](O)[C@H](O)CO)O3)[C@H]2O)[C@H](O)[C@H]1O)NC(=O)CCCCCCCCCCCCCCCCC (some centres not stated) | > 200 | > 200 | > 200 | > 200 |  |  | Active |  |  |  |  | 9.3 | 
 |  | CCCCCCCCCCCCC/C=C/[C@@H](O)[C@H](CO[C@@H]1O[C@H](CO)[C@@H](O[C@@H]2O[C@H](CO)[C@H](O)[C@H](O[C@]3(C(=O)O)C[C@H](O)[C@@H](NC(=O)Cc4ccc(C)cc4)C([C@@H](O)[C@H](O)CO)O3)[C@H]2O)[C@H](O)[C@H]1O)NC(=O)CCCCCCCCCCCCCCCCC (some centres not stated) | > 200 | > 200 | > 200 | > 200 |  |  |  |  |  |  |  |  | 
